Broadly, the IC50 is the concentration that gives 50% inhibition.

Experimental findings from ChEMBL document CHEMBL3046463, “Antihepatotoxic, nephroprotective, and antioxidant activities of phenolic compounds from Satureja macrostema leaves against carbon tetrachloride-induced hepatic damage in mice” (Med Chem Res, 2013) are described below.

Converted amounts (≈) assume the structure as drawn.

Holding throughout (assay type): functional
Experiment [1] concerns Mus musculus. The experiment can be described thus: Hepatoprotective activity in CD1 Mus musculus (mouse) intoxicated with CCl4 assessed as increase in total protein level in serum at 20 mg/kg, po administered 30 min before and 3 hr after CCl4 challenge measured 48 hr post CCl4 challenge (reference value: 61.80 +/- 5.48 g/l).
Experiment [2] relates to Mus musculus. The experiment can be described thus: Nephroprotective activity in CD1 Mus musculus (mouse) assessed as reduction of CCl4-induced plasma creatinine level at 20 mg/kg, po administered 30 min before and 3 hr after CCl4 challenge measured 48 hr post CCl4 challenge (reference value: 1.2 +/- 0.006 mg/dl).
The test system of experiment [3] is Radical scavenging activity. The experiment can be described thus: Antioxidant activity assessed as DPPH free radical scavenging activity.
The test system of experiment [4] is Mus musculus. The experiment can be described thus: Hepatoprotective activity in CD1 Mus musculus (mouse) assessed as reduction of CCl4-induced serum alanine aminotransferase level at 20 mg/kg, po administered 30 min before and 3 hr after CCl4 challenge measured 48 hr post CCl4 challenge (reference value: 296 +/- 7.93 IU/l).
In experiment [5] the test system is Mus musculus. The experiment can be described thus: Hepatoprotective activity in CD1 Mus musculus (mouse) assessed as reduction of CCl4-induced total cholesterol level in serum at 20 mg/kg, po administered 30 min before and 3 hr after CCl4 challenge measured 48 hr post CCl4 challenge (reference value: 172.57 +/- 4.36 md/dl).
Experiment [6] relates to Mus musculus. The experiment can be described thus: Hepatoprotective activity in CD1 Mus musculus (mouse) assessed as reduction of CCl4-induced serum alkaline phosphatase level at 20 mg/kg, po administered 30 min before and 3 hr after CCl4 challenge measured 48 hr post CCl4 challenge (reference value: 239.1 +/- 5.98 IU/l).
Experiment [7] concerns Mus musculus. The experiment can be described thus: Nephroprotective activity in CD1 Mus musculus (mouse) assessed as reduction of CCl4-induced plasma urea level at 20 mg/kg, po administered 30 min before and 3 hr after CCl4 challenge measured 48 hr post CCl4 challenge (reference value: 61.56 +/- 3.46 mg/dl).
The nature of experiment [8]: Antioxidant activity assessed as inhibition of H2O2/Fe2+-induced radical generation.
Experiment [9] relates to Mus musculus. The experiment can be described thus: Hepatoprotective activity in CD1 Mus musculus (mouse) assessed as reduction of CCl4-induced serum aspartate aminotransferase level at 20 mg/kg, po administered 30 min before and 3 hr after CCl4 challenge measured 48 hr post CCl4 challenge (reference value: 487.3 +/- 6.21 IU/l).
Experiment [10] is described as follows: Antioxidant activity assessed as superoxide radical scavenging activity.

Regarding `C[C@H]1O[C@@H](Oc2cc(O)c3c(c2)O[C@H](c2cc(O)c(O)c(O)c2)CC3=O)[C@@H](O)[C@@H](O)[C@@H]1O`, the Activity with Mus musculus [1] worked out at 76.1 g/L; in the experiment with Mus musculus [2] it was 0.76 mg/dL; in the experiment with Mus musculus [4], 103.4 IU/L; with Mus musculus [5], 124.34 mg/dL; in the experiment with Mus musculus [6], 118.1 IU/L; in the experiment with Mus musculus [7], 51.1 mg/dL. Besides, in the experiment with Mus musculus [9], the Activity is 145.7 IU/L. Also, the IC50 in [3] was 9.3 µg/mL (≈ 20.6 µM); in experiment [8] it was 18.2 µg/mL (≈ 40.4 µM); in experiment [10], 25.8 µg/mL (≈ 57.3 µM).
Take `COc1ccc([C@@H]2CC(=O)c3c(OC)cc(O[C@@H]4O[C@H](C)[C@@H](O)[C@H](O)[C@@H]4O)cc3O2)cc1O`: the Activity in the experiment with Mus musculus [1] is 70.24 g/L; in the experiment on Mus musculus [2] it was 0.69 mg/dL; with Mus musculus [4], 143.6 IU/L; in the experiment on Mus musculus [5] it was 140.13 mg/dL; in the experiment with Mus musculus [6], 149.6 IU/L; in the experiment with Mus musculus [7], 46.62 mg/dL. Besides, in the experiment with Mus musculus [9], the Activity is on record as 200.6 IU/L. For the same compound, the IC50 in experiment [3] stood at 21.4 µg/mL (≈ 46.3 µM); in experiment [8] it was 32.7 µg/mL (≈ 70.7 µM); in experiment [10] it was 39.76 µg/mL (≈ 86 µM).
Turning to `COc1ccc(-c2oc3cc(O[C@@H]4O[C@H](CO)[C@@H](O)[C@H](O[C@@H]5O[C@@H](C)[C@H](O)[C@@H](O)[C@H]5O)[C@H]4O)c(OC)c(O)c3c(=O)c2OC)cc1`, the Activity in the experiment with Mus musculus [1] was 68.23 g/L; in the experiment on Mus musculus [2] it was 0.67 mg/dL; in the experiment with Mus musculus [4], 152.4 IU/L; in the experiment with Mus musculus [5] it was 143.28 mg/dL; in the experiment with Mus musculus [6], 156.5 IU/L; with Mus musculus [7] it was 44.78 mg/dL. Besides, the Activity in the experiment with Mus musculus [9] came to 219.4 IU/L. The IC50 amounted to 24.8 µg/mL (≈ 38 µM) in experiment [3], 36.42 µg/mL (≈ 55.8 µM) in experiment [8] and 43.12 µg/mL (≈ 66.1 µM) in experiment [10].
As for `COc1c(O)cc([C@H]2Oc3cc(O)cc(O)c3C(=O)[C@@H]2O[C@@H]2O[C@H](C)[C@@H](O)[C@H](O)[C@@H]2O[C@@H]2O[C@H](C)[C@@H](O)[C@H](O)[C@@H]2O)cc1O`, the Activity with Mus musculus [1] amounted to 74.76 g/L; with Mus musculus [2], 0.74 mg/dL; in the experiment with Mus musculus [4] it was 115.1 IU/L; in the experiment on Mus musculus [5] it was 129.31 mg/dL; in the experiment with Mus musculus [6], 128.3 IU/L; in the experiment with Mus musculus [7], 49.43 mg/dL. Besides, in the experiment with Mus musculus [9], the Activity is 161.6 IU/L. Further, the results for the IC50 in experiment [3], in experiment [8] and in experiment [10] were 17.5 µg/mL (≈ 27.9 µM), 22.4 µg/mL (≈ 35.8 µM) and 30.4 µg/mL (≈ 48.5 µM), respectively.
For the compound `COc1cc(O)cc2c1C(=O)[C@H](O[C@@H]1O[C@H](C)[C@@H](O)[C@H](O)[C@@H]1O)[C@@H](c1cc(O)c(OC)c(O)c1)O2`, the Activity came out at 71.57 g/L with Mus musculus [1]; 0.71 mg/dL in the experiment on Mus musculus [2]; 124.2 IU/L in the experiment on Mus musculus [4]; 136.8 mg/dL in the experiment with Mus musculus [5]; 137.5 IU/L with Mus musculus [6]; 47.26 mg/dL in the experiment with Mus musculus [7]. Besides, the Activity in the experiment on Mus musculus [9] is recorded as 189.4 IU/L. For the same compound, the IC50 in experiment [3] came out at 11.6 µg/mL (≈ 23.5 µM); in [8], 26.7 µg/mL (≈ 54 µM); in [10] it was 35.2 µg/mL (≈ 71.2 µM).
With `O=c1c(O)c(-c2ccc(O)c(O)c2)oc2cc(O)cc(O)c12` [QUERCETIN], the IC50 in experiment [3] stood at 8.2 µg/mL (≈ 27.1 µM); in experiment [8], 14.6 µg/mL (≈ 48.3 µM); in experiment [10], 20.1 µg/mL (≈ 66.5 µM).
